Values of other authors, collected in patent publication US9625473B2, “Cytokine biomarkers as predictive biomarkers of clinical response for glatiramer acetate” (TEVA PHARMACEUTICAL INDUSTRIES LTD., priority 2010, dated 2017).

Legend:
IL-4 = settings: after stimulation with GA, mediated predominantly by CD4 cells, GA-treated vs. untreated patients
PBMC = settings: GA-treated vs. untreated patients
IFN-gamma = settings: after stimulation with high GA concentrations, partially mediated by CD8 cells, GA-treated vs. untreated patients

Which “IL-4 ELISPOT response” value (IL-4) does the source give for Glatiramer acetate [GA] here?
Its value is “positive”.

What about the “GA-induced PBMC proliferation” value (PBMC) of the same substance?
The value was “significant reduction”.

And the “number of relapses, compared with placebo” value (RRMS subjects; RRMS subjects, GA 20 mg/day, three double-blind placebo-controlled studies)?
Its value is “significant reduction”.

And the tolerability (RRMS subjects; daily standard dose of 20 mg)?
The tolerability was “generally well tolerated”.

And the relapse rate reduction (RRMS subjects; largest controlled study, GA 20 mg vs placebo)?
Its relapse rate reduction is 32%.

And the relapse rate (RRMS subjects; largest controlled study, under GA 20 mg)?
The relapse rate was 1.34.

And the “median cumulative number of Gd-enhancing lesions” value (RRMS subjects; over 9 months of treatment, 20 mg group, MRI)?
Its value is 11 lesions.

And the IFN-gamma response (IFN-gamma)?
Its IFN-gamma response is “elevated”.
